{
  "source": "ChEMBL document CHEMBL1201862",
  "about": "“PubChem BioAssay data set” (2004)",
  "key": {"cells": {"assay": "cells", "type": "functional, cell-based"}, "[1]": {"target": "T1, Sphingosine 1-phosphate receptor 4 (Homo sapiens, UniProt O95977)", "T1 sequence (O95977 whole entry)": "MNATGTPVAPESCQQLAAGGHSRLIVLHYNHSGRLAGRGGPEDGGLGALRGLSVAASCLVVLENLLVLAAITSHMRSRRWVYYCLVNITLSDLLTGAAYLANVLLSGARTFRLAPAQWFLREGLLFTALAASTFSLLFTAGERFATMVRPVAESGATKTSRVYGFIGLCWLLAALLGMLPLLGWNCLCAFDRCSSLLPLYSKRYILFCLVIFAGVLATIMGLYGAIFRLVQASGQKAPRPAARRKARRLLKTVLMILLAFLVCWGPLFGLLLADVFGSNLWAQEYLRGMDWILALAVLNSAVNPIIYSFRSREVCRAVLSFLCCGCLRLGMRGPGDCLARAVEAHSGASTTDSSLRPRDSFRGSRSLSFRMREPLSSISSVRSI", "assay": "Fluorescence dose response cell-based high throughput screening assay for antagonists of the Sphingosine 1-Phosphate Receptor 4 (S1P4). [Related pubchem assays: 1524 (Confirmation in triplicates.), 1510 (Primary screen.)]", "type": "functional"}, "[2]": {"assay": "Luminescence-based dose response cell-based high throughput screening assay for cytotoxic compounds using the IEC-6 intestinal epithelial cell line. [Related pubchem assays: 1858 (Summary AID.), 1825 (Counterscreen.), 1907 (Confirmation screen.)]", "type": "functional"}, "[3]": {"target": "T2, Histone-lysine N-methyltransferase NSD2 (Homo sapiens, UniProt O96028)", "T2 sequence (O96028 whole entry)": "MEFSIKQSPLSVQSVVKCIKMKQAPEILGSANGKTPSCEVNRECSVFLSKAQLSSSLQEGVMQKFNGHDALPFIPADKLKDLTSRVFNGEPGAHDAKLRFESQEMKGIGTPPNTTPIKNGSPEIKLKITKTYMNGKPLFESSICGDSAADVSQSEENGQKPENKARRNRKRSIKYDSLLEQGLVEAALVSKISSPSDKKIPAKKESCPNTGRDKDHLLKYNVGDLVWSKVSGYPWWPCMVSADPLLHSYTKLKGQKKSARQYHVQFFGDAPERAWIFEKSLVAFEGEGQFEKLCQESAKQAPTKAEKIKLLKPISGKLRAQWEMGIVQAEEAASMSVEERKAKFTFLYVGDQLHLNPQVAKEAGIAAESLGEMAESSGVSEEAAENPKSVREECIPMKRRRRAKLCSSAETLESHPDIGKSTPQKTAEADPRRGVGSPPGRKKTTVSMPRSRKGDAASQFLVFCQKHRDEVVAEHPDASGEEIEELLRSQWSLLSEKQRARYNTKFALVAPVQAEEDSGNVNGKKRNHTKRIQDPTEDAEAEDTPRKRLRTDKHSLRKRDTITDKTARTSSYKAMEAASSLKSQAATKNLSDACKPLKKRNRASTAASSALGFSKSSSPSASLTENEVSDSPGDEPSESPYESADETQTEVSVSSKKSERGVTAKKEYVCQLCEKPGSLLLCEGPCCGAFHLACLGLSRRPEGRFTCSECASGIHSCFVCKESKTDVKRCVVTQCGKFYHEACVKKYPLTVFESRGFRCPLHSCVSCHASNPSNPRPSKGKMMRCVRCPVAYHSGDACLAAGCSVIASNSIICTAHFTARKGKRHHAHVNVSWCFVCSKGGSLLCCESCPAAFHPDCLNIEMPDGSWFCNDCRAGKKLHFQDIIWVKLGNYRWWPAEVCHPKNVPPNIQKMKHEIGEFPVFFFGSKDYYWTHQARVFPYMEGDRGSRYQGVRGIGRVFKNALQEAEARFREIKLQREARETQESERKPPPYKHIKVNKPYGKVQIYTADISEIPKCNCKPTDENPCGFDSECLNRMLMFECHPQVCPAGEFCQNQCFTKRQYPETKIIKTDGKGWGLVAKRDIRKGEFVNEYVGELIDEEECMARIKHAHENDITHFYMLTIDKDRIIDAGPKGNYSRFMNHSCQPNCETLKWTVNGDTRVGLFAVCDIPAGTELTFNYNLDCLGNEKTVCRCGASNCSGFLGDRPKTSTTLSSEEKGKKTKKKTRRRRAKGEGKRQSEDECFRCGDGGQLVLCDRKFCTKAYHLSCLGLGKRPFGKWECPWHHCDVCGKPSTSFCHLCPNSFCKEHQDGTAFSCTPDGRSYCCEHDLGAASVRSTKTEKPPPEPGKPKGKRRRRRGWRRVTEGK", "type": "biochemical"}, "[4]": {"assay": "HeLa cell cytotoxicity, dose response, cytotoxicity control for MgcRacGAP inhibitor project (AID 624300)", "type": "functional"}, "[5]": {"target": "1-phosphatidylinositol 4,5-bisphosphate phosphodiesterase beta-3 (Homo sapiens, UniProt Q01970)", "sequence (Q01970 whole entry)": "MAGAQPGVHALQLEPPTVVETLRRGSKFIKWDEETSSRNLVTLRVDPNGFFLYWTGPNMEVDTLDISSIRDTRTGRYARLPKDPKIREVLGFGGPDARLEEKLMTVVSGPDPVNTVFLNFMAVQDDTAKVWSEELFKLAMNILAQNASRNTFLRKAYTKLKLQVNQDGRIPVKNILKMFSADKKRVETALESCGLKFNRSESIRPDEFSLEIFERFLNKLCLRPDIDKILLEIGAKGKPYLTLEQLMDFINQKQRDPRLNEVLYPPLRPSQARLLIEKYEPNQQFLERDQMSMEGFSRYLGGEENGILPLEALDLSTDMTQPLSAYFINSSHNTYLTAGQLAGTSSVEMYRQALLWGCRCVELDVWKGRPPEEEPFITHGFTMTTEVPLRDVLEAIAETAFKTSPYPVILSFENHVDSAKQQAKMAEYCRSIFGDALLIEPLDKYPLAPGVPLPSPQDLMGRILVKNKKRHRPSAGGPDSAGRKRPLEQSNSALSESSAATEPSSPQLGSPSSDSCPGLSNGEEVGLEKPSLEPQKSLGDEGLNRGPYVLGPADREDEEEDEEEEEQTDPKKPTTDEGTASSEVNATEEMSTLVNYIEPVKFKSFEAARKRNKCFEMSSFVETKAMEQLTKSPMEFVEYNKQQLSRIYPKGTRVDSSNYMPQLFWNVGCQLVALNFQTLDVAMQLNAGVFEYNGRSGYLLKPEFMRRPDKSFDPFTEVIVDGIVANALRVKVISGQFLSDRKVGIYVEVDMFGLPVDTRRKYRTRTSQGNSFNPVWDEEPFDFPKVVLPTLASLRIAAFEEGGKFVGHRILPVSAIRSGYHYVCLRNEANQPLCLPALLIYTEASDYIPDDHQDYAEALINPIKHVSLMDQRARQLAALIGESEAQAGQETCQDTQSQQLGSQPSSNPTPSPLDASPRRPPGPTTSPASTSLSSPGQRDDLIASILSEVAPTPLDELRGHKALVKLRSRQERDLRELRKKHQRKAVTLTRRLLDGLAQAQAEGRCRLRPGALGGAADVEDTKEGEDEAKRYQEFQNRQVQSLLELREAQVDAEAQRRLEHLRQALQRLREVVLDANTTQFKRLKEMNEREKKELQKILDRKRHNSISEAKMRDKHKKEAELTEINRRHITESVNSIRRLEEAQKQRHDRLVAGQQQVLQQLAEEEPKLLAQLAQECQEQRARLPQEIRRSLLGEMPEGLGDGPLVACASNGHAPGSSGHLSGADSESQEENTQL", "assay": "Fluorescence-based biochemical high throughput dose response assay to identify inhibitors of phospholipase C isozymes (PLC-B3)."}, "[6]": {"target": "Lysine-specific demethylase 4A (Homo sapiens, UniProt O75164)", "sequence (O75164 whole entry)": "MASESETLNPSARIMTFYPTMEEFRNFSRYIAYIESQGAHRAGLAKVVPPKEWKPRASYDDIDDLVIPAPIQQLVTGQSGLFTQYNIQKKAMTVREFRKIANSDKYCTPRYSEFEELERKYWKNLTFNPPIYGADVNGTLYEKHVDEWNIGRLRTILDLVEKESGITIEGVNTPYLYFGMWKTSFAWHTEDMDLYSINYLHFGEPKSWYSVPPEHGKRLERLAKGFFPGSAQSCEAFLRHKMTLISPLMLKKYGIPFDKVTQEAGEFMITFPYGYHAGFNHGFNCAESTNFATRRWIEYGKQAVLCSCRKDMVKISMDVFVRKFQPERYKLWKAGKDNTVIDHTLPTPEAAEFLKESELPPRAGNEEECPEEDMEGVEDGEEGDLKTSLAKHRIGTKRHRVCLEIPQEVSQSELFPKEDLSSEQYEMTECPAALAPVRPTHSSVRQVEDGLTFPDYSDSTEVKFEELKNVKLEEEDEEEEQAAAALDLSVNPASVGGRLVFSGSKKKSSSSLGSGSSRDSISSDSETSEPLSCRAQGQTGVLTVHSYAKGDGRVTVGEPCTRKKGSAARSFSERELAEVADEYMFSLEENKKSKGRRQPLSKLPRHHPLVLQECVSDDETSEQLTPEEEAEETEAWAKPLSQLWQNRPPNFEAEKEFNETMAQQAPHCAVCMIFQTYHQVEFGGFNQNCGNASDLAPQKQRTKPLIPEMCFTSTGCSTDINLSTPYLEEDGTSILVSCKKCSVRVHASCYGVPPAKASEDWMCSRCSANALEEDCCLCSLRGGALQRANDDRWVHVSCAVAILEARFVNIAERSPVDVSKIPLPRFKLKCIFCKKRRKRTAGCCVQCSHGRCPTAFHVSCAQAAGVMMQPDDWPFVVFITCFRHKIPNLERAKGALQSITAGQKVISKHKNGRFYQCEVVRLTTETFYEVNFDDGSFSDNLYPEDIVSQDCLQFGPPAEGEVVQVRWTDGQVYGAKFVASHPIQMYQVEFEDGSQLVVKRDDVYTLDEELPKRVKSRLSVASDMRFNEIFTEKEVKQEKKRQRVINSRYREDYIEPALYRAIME", "assay": "JMJD2A histone demethylase inhibitors, dose response, selectivity assay for GASC-1 inhibitor project, biochemical, DELFIA europium, cherry-picked samples (AID 488840)"}, "Genome polyprotein": {"target": "Genome polyprotein (dengue virus type 2, UniProt P29990)", "sequence (P29990 2492-3391 limits assumed)": "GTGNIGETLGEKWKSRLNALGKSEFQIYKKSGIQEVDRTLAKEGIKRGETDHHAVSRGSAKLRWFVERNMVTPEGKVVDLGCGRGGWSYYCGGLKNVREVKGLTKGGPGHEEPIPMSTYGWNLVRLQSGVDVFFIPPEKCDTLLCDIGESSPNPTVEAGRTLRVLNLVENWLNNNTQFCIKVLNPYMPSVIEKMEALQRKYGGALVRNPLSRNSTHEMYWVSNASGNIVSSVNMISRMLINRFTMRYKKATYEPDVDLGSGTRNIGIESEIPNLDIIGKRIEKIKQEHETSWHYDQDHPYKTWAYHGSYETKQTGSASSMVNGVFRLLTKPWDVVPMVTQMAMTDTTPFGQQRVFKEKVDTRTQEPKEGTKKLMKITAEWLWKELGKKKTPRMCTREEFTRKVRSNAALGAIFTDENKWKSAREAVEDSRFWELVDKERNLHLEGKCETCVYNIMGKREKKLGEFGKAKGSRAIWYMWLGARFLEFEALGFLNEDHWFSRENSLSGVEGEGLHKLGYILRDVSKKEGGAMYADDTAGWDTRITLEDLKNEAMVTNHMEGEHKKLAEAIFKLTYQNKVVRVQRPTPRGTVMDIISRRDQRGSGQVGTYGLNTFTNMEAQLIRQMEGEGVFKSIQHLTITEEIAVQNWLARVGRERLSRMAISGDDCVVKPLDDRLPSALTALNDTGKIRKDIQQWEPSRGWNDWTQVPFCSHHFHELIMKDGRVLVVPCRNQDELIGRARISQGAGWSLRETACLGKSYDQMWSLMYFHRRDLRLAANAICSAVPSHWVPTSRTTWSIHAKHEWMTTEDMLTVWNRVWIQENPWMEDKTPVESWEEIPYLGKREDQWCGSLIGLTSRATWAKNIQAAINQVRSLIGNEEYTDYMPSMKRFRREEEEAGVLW", "assay": "Dengue-2 NS5 methyltransferase inhibitors, primary screen, biochemical, confirmation dose response (AID 588689)", "type": "functional"}, "Caspase-8": {"target": "Caspase-8 (Homo sapiens, UniProt Q14790)", "sequence (Q14790 217-374 limits assumed)": "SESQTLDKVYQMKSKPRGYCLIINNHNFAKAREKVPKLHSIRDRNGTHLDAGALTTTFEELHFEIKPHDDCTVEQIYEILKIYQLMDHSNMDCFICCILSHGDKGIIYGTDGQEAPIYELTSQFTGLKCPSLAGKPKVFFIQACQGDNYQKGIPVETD", "sequence (Q14790 385-479 limits assumed)": "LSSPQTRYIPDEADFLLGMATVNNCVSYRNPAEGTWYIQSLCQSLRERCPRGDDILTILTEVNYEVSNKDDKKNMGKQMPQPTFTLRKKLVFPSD", "assay": "caspase-8 inhibition counter-screen, dose response, selectivity assay for caspase-6 inhibitor project, biochemical, Z-IETD-R110 fluorescence, cherry-picked samples (AID 743294)"}, "Troponin, cardiac muscle": {"target": "Troponin, cardiac muscle (Homo sapiens, UniProt P19429+P45379+P63316)", "assay": "inhibitors of cardiac thin filament calcium sensitivity, dose response, biochemical, fluorescence, cardiac regulated thin filaments, triplicate IC50 (AID 504742)", "type": "protein-complex assay"}, "Jurkat": {"system": "Jurkat", "assay": "antigen receptor-induced NF-kB inhibitors, dose response, Jurkat, luciferase reporter, luminescence, B- and T-cell (AID 489004);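 further: NF-kB luciferase reporter Jurkat cells stimulated with PMA plus ionomycin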", "type": "functional, cell-based", "settings": "Homo sapiens"}, "[7]": {"target": "T3, Ubiquitin-conjugating enzyme E2 N (Homo sapiens, UniProt P61088)", "T3 sequence (P61088 whole entry)": "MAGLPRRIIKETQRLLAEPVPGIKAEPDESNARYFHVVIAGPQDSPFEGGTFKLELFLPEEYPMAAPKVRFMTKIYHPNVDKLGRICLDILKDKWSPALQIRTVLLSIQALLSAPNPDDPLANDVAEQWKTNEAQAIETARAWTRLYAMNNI", "type": "functional"}, "[8]": {"target": "T3, Ubiquitin-conjugating enzyme E2 N", "type": "functional", "remark": "listed apart in the source"}, "[9]": {"assay": "cytotoxicity in HEK-293T NF-kB-Luc cells, dose response, cytotoxicity control for B/T-cell NF-kB inhibitor project, cell-based, uHTS hits (AID 489019);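 further: IC50 reflects cytotoxicity as loss of cell viability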", "type": "functional"}},
  "note": "The source made the active and inactive calls.",
  "data": [
    {"smiles": "Cc1oc2c(c1C(=O)NCc1cccnc1)C(=O)c1ccccc1C2=O", "values": [
      {"measurement": "EC50", "setting": "cells", "value": "0.232 µM (active)"},
      {"measurement": "IC50", "setting": "[1]", "value": "0.581 µM (active)"},
      {"measurement": "IC50", "setting": "[2]", "value": "0.158 µM (active)"}
    ]},
    {"smiles": "O=c1ccc2c(-c3ccccc3S(=O)(=O)O)c3ccc(O)c(O)c3oc-2c1O", "note": "[PYROGALLOL RED]", "values": [
      {"measurement": "AC50", "setting": "[3]", "value": "0.146 µM (active)"},
      {"measurement": "CC50", "setting": "[4]", "value": "100 µM (active)"},
      {"measurement": "IC50", "setting": "[5]", "value": "> 40.8 µM (inactive)"},
      {"measurement": "AC50", "setting": "[6]", "value": "2.63 µM (active)"},
      {"measurement": "IC50", "setting": "Genome polyprotein", "value": "4.06 µM (active)"},
      {"measurement": "AC50", "setting": "Caspase-8", "value": "> 70 µM (inactive)"},
      {"measurement": "IC50", "setting": "Troponin, cardiac muscle", "value": "0.558 µM (active)"}
    ]},
    {"smiles": "CCCCCCCCCCOC(=O)C[n+]1c(COc2ccccc2OC)n(C)c2ccccc21", "values": [
      {"measurement": "IC50", "setting": "Jurkat", "value": "4.4 µM (active)"},
      {"measurement": "IC50", "setting": "[7]", "value": "15.1 µM (active)"},
      {"measurement": "IC50", "setting": "[8]", "value": "15.6 µM (active)"},
      {"measurement": "IC50", "setting": "[9]", "value": "54.4 µM (inactive)"}
    ]}
  ]
}
